Assay: Solubility (product profile)
Assay type: physicochemical
Settings: API
Description: Further information providing the solubility, particle size, viscosity, and other product profile parameters of exemplary CLS-AX compositions (active pharmaceutical ingredient (API); and drug product) are provided in Table 1C.

- Solubility (solvent): DMSO
Structure (SMILES): CNC(=O)c1ccccc1Sc1ccc2c(/C=C/c3ccccn3)n[nH]c2c1 [Axitinib]
